Legend:
Experiment in all cases: chemoproteomic target identification by competition binding – cell lysate, SILAC, HepG2 extract, LC-MS/MS, mechanism study for Trib1 inducer project, late-stage follow-up (AID 1053157)
[1] = molecular target: Ferroptosis suppressor protein 1 (Homo sapiens) (UniProt Q9BRQ8); conditions: Apoptosis-inducing factor
[2] = molecular target: NADH dehydrogenase [ubiquinone] 1 alpha subcomplex subunit 6 (Homo sapiens) (UniProt P56556)
Prenylcysteine oxidase 1 = Prenylcysteine oxidase 1 (UniProt Q9UHG3)
Sequence of Prenylcysteine oxidase 1 (Q9UHG3 whole entry, looked up): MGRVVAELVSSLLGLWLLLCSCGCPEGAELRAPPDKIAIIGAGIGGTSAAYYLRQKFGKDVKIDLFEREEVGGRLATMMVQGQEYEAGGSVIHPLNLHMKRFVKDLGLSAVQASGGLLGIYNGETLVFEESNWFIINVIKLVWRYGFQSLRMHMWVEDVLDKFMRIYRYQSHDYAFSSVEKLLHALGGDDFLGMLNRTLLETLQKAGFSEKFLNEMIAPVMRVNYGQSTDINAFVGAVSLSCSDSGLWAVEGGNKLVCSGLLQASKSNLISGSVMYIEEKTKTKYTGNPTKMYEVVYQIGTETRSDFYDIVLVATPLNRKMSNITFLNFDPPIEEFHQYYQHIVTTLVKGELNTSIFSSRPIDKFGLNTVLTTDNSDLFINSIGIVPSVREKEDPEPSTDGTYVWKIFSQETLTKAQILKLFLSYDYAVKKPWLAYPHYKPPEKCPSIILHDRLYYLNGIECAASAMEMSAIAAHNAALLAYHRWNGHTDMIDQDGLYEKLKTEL

Protein zwilch homolog = Protein zwilch homolog (UniProt Q9H900)
Sequence of Protein zwilch homolog (Q9H900 whole entry, looked up): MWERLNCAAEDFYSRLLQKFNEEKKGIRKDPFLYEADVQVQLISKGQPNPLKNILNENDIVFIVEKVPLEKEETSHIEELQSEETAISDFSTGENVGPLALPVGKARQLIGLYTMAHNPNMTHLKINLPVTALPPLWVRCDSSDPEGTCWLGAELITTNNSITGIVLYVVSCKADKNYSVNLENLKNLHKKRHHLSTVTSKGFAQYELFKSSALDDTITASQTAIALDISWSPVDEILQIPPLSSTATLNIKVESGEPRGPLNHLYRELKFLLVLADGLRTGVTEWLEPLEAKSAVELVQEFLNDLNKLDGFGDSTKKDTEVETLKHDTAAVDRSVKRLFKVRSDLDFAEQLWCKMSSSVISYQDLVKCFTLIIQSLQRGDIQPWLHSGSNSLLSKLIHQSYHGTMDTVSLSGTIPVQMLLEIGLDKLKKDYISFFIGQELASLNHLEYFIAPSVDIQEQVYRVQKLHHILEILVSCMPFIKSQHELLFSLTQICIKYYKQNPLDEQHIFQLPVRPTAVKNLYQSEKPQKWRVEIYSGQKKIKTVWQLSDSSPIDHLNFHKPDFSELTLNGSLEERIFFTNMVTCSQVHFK

Ran-binding protein 6 = Ran-binding protein 6 (UniProt O60518)
Sequence of Ran-binding protein 6 (O60518 whole entry, looked up): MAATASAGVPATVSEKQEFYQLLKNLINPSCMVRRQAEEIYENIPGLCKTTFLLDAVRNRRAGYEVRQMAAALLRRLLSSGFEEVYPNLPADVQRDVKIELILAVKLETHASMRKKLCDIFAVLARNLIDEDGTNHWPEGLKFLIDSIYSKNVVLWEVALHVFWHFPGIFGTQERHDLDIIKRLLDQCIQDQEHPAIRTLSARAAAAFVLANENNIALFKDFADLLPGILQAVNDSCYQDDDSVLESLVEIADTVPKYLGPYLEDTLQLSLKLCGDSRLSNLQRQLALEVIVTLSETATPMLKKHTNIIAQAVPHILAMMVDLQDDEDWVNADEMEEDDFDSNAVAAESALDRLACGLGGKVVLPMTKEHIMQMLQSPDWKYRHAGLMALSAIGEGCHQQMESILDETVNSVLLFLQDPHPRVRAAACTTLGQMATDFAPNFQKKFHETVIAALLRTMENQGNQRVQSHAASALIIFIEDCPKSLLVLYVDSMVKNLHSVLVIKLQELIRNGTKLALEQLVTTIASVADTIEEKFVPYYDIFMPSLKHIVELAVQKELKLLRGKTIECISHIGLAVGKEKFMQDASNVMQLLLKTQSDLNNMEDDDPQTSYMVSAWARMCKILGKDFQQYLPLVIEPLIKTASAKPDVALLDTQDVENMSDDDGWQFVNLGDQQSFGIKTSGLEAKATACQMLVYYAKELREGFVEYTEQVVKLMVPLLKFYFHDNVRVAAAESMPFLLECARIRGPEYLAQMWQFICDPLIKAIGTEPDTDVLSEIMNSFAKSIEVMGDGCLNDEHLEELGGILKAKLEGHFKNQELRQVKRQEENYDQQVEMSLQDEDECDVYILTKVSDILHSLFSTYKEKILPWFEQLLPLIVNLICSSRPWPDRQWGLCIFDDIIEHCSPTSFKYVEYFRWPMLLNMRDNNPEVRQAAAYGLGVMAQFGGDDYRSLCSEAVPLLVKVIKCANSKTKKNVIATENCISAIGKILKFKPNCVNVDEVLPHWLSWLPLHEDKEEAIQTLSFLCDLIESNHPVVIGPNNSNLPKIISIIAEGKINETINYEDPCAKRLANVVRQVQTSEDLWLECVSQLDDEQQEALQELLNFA

[3] = molecular target: Ubiquitin carboxyl-terminal hydrolase 34 (UniProt Q70CQ2)

Sequence of NADH dehydrogenase [ubiquinone] 1 alpha subcomplex subunit 6 (Homo sapiens) (P56556 whole entry, looked up, one chain of several): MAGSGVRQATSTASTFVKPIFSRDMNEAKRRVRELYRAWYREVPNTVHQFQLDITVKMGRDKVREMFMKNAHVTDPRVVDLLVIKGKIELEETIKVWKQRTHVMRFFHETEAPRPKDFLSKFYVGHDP
Sequence of Ferroptosis suppressor protein 1 (Homo sapiens) (Q9BRQ8 whole entry, looked up): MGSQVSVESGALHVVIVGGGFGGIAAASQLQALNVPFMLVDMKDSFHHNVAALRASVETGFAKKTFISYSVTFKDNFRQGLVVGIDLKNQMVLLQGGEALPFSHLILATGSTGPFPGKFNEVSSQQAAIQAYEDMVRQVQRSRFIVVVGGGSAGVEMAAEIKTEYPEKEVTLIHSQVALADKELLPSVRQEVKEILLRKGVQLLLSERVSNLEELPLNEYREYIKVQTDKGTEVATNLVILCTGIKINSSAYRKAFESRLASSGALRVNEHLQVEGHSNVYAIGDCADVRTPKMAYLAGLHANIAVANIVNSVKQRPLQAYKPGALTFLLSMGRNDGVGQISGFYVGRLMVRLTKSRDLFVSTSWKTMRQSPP

Kd [1]: 26.7 µM | Kd [2]: 29.3 µM | Kd (Prenylcysteine oxidase 1): 10.2 µM | Kd (Protein zwilch homolog): 18.4 µM | Kd (Ran-binding protein 6): 25.6 µM | Kd [3]: 25.7 µM
Structure (SMILES): CN1C(=O)c2cc(NC(=O)c3ccc(C(F)(F)F)cc3)ccc2OC[C@@H]2O[C@H](CC(=O)NC3Cc4ccccc4C3)CC[C@@H]21

Reference: PubChem BioAssay AID1053157 (Broad Institute, 2014)
